{
  "source": "patent US4939138A",
  "about": "“2- and 3-aminomethyl-6-arylcarbonyl-2,3-dihydropyrrolo(1,2,3-DE)-1,4-benzoxazin es” (Sterling Drug Inc., priority 1989, dated 1990)",
  "key": {"cyclooxygenase": {"tested_on": "cyclooxygenase", "test": "inhibition of cyclooxygenase assay (CO)", "type": "biochemical, mice", "conditions": "30 μM; negative values = increases over controls, not demonstrated to differ significantly", "experimental": "(§1) In order to further detail the analgesic profiles of the compounds of the invention, their activities in the inhibition of acetic acid-induced writhing assay in the rat, the inhibition of cyclooxygenase assay and a modification of the Randall-Selitto analgesic test were also determined The test procedure used to determine the inhibition of acetic acid-inducedwrithing in the rat is described as follows.\nThe test procedure used to determine cyclooxygenase inhibitory activity is described as follows.\nMale mice were decapitated and stomach and brain (cerebral cortex, hypothalamus and medulla) were rapidly dissected over ice. The brains were homogenized in 3 volumes of ice cold 0.1 M potassium phosphate buffer, pH 7.4 containing 10 mM EDTA and 1% BSA (w/v). The homogenate was centrifuged at 10,000 xg for 15 minutes. The resulting supernatant was decanted and centrifuged at 100,000 xg for 60 minutes yielding a crude microsomal pellet. The pellet was washed superficially three times in 3 volumes of 0.1 M potassium phosphate buffer before final resuspension in 1.5 volumes of 0.1 M potassium phosphate buffer containing 1 mM norepinephrine and 1 mM reduced glutathione. The microsomes (50 μl) were preincubated with 50 μl of indomethacin (0.3 μM), test compound or norepinephrine/glutathione-containing buffer for 5 minutes at room temperature. The enzyme reaction was initiated by the addition of 50 μl of ^14 C arachidonic acid to yield a final concentration of 10 μM. After a further incubation of 15 minutes at 37° C., the reaction was stopped by the addition of 50 μl of 4M formic acid. Blank values were determined by using microsomes boiled for 5 minutes but otherwise were treated similarly. The ^14 C-labelled material was extracted 3 times with 0.5 ml of ethyl acetate with intermediate centrifugations at 500 xg for 5 minutes to clarify the aqueous and organic phases. This procedure extracted >95% of the ^14 C-labelled materials. The ethyl acetate washes were added to tubes containing 5 μg each of PGE2, PGF2, PGD2, and 10 μg PGI2 in 25 μl of ethanol. The mixture was evaporated to dryness under nitrogen and the residue dissolved in 150 μl of chloroform:methanol (2:1). This solution was spotted on 5×20 cm silica gel plates and chromatographed with an ethyl acetate, trimethylpentane, acetic acid and water mixture (110:50:20:100 by volume) prepared by shaking the solvents and separating and discarding the organic phase. The prostaglandins were visualized in iodine vapor, the various spots were scraped, and the ^14 C-labelled prostaglandins quantitated by liquid scintillation spectroscopy in 10 ml of BIOFLUOR® or FLUORODYNE®.\n(§2) In the acetylcholine-induced abdominal constriction test, the test compounds were administered either as suspensions in gum tragacanth (GT) or as aqueous solutions prepared by addition of just sufficient dilute aqueous methanesulfonic acid (MS) or dilute aqueous lactic acid (LA) to dissolve the compound The compounds are identified by the example number above where their preparations are described All data in the anti-bradykinin, rat writhing and Randall-Selitto tests were obtained on oral administration."}, "[1]": {"tested_on": "acetylcholine-induced abdominal constriction", "test": "acetylcholine-induced abdominal constriction test (ACH)", "type": "in vivo, mice", "conditions": "for ED50: Mus musculus", "from_the_text": "(§3) The test procedures used to determine the analgesic activities of the compounds have been described in detail in the prior art and are as follows: The acetylcholine-induced abdominal constriction test, which is a primary analgesic screening test designed to measure the ability of a test agent to suppress acetylcholine-induced abdominal constriction in mice, described by Collier et al., Brit. J. Pharmacol. Chemotherap. 32, 295 (1968); a modification of the anti-bradykinin test, which is also a primary analgesic screening procedure, described by Berkowitz et al., J. Pharmacol. Exptl Therap. 177, 500-508 (1971), Blane et al., J. Pharm. Pharmacol 19, 367-373 (1967), Botha et al., Eur. J. Pharmacol. 6, 312-321 (1969) and Deffenu et al., J. Pharm. Pharmacol. 18, 135 (1966); the rat paw flexion test, described by Kuzuna et al., Chem. Pharm. Bull., 23, 1184-1191 (1975), Winter et al., J. Pharm. Exptl. Therap., 211, 678-685 (1979) and Capetola et al., J. Pharm. Exptl. Therap. 214, 16-23 (1980); and the mouse vas deferens adrenergic transmission test, described by Henderson et al., Brit. J. Pharmacol., 46, 764-766 (1972).\nas §2"}, "[2]": {"tested_on": "acetic acid-induced writhing", "test": "inhibition of acetic acid-induced writhing in the rat (RW)", "type": "in vivo, rat (male Sprague Dawley)", "conditions": "Rattus norvegicus; oral", "experimental": "as §1\nMale Sprague Dawley rats (Taconic Farms) weighing between 160 and 200g were treated in a random and blind fashion with 1% gum tragacanth vehicle or test agent suspended or dissolved in 1% gum tragacanth. Rats were individually housed in plastic cages (28×18×12 cm) throughout the experiment. Forty-five minutes after drug treatment, 0.5 ml of 9% (w/v) acetic acid was administered intraperitoneally, and animals were returned to their cages for 10 minutes. Writhing is not normally seen during this 10 minute period. Each animal was then observed for a writhing response during a subsequent 10 minute interval (55-65 minutes post-drug treatment). A writhing response was defined as arching of the back with extension of the hindlimbs and contraction of abdominal muscles. […] Data were expressed as percent inhibition of the mean number of writhes in the vehicle treated control group. Data were evaluated for statistical significance by Dunnett's test, and ED50 's for inhibition of acetic acid-induced writhing were determined by the graded dose-response analysis of Tallarida and Murray, Manual of Pharmacologic Calculations with Computer Programs, Springer Verlag, New York (1981).\nas §2"}, "bradykinin": {"tested_on": "bradykinin", "test": "anti-bradykinin test (BDK/BRKD)", "type": "in vivo", "conditions": "oral", "from_the_text": "as §3, with “(1972). […]” for “(1972).”"}, "[3]": {"tested_on": "brewers' yeast-induced hyperalgesia", "test": "modification of the Randall-Selitto analgesic (paw pressure) test (R-S)", "type": "in vivo, rat (Sprague-Dawley)", "conditions": "Rattus norvegicus; oral; read-out: R-S minimum effective dose, MED", "experimental": "as §1\nThe modification of the Randall-Selitto analgesic test procedure used is described as follows:\nFemale Sprague-Dawley rats, weighing 60 to 95 grams, were routinely used. […] The rats were housed 10 per cage with food and water available ad libitum.\nThe Randall-Selitto Test device used was a UGO Basile Analgesy Meter (catalog no. 7200), with the flat-topped plinth on the bottom, acting as a platform upon which the hind paw of the rat was placed and the round-pointed pusher oriented downward. […]\nAnimals were given the test drug, p.o., two hours after the sub-plantar injection, four doses customarily being given, along with vehicle control and a positive control (Zomepirac). […] Treatments were assigned in such a way that both the range and the means of the baseline readings were as nearly equal as possible for all treatments. […]\nResults were analyzed with the Student's t-test. […]"}},
  "data": [
    {"smiles": "Cc1c(C(=O)c2cccc3ccccc23)c2cccc3c2n1C(CN1CCOCC1)CO3", "note": "(centres unmarked) [Example 1B, 3-(4-morpholinylmethyl)-5-methyl-6-(1-naphthylcarbonyl)-2,3-dihydropyrrolo1,2,3-de]-1,4-benzoxazine methanesulfonate]", "values": [
      {"measurement": "CO percent inhibition (% I)", "setting": "cyclooxygenase", "value": -35, "unit": "%"},
      {"measurement": "ED50", "setting": "[1]; iv", "value": 0.25, "unit": "mg/kg"},
      {"measurement": "ED50", "setting": "[1]; po, aqueous methanesulfonic acid (MS)", "value": 33, "unit": "mg/kg"},
      {"measurement": "ACH percent inhibition", "setting": "[1]; p.o., dose level 100, suspension in gum tragacanth (GT)", "value": 30, "unit": "%"},
      {"measurement": "ACH percent inhibition", "setting": "[1]; s.c., dose level 100", "value": 73, "unit": "%"},
      {"measurement": "ED50", "setting": "[2]", "value": 8.6, "unit": "mg/kg"},
      {"measurement": "ED50", "setting": "bradykinin", "value": 35, "unit": "mg/kg"},
      {"measurement": "minimal effective dose", "setting": "[3]", "value": 3, "unit": "µg/kg"}
    ]}
  ]
}
